Assay: Human HepG2 cell viability assay in 384 well format
Type: toxicity, cell-based
Parameters: dose 125 nL, time 70.5 hour; cytotoxicity at 70.5 h: concentration not given beside the values
Details: HepG2 cells, read-out: Inhibition

| SMILES | cytotoxicity at 70.5 h [%] |
| --- | --- |
| Cc1nnc(NCC(c2cccs2)N2CCCC2)c(C#N)c1C (stereo not given) | -2.36 |
| CC(C)N(CC(N)=O)CC(=O)NCCc1c(F)cccc1F | -1.87 |
| Cc1ccccc1C1CCN(C(=O)CCNC(=O)C(C)(C)C)C1 (stereo not given) | -1.33 |
| CC(Cc1c(F)cccc1F)NC(=O)CSCC(N)=O (stereo not given) | 12.1 |
| Cc1ccc(NS(=O)(=O)c2cccc(C#N)c2)c(CN(C)C)c1 | 0.936 |
| Cc1ccccc1CNC(Cn1cncn1)c1ccccc1 (stereo not given) | 1.75 |
| CCSCCC(C)N(C)C(=O)c1cc(C)on1 (stereo not given) | -3.26 |
| Cc1cc(C(=O)NC(CC(C)C)C(=O)Nc2cc[nH]n2)c(C)o1 (stereo not given) | 0.859 |
| CC(C)CC(NC(=O)c1cnn(C)c1)C(=O)Nc1cc[nH]n1 (stereo not given) | 0.0249 |
| N#Cc1c(Cl)nsc1NCc1ccc(N2CCC(CO)CC2)cc1 | -0.689 |
| CC(C)(C)n1ncc2c(=O)[nH]c(N3CCC4(CCCCC4)C3)nc21 | -2.75 |
| Cc1nn(C)cc1C(=O)NC(CC(C)C)C(=O)Nc1cc[nH]n1 (stereo not given) | 12.6 |
| COCCOCCC(=O)N1CCC(c2ccccc2C)C1 (stereo not given) | -4.21 |
| CCSCCC(C)N(C)C(=O)c1cc(C)no1 (stereo not given) | -2.61 |
| Cc1ccc(NCc2ccc(C#N)cc2)c(CN(C)C)c1 | 15.8 |
| Cc1ccc(S(=O)(=O)NCCNC(=O)c2cncnc2C)cc1 | -2.92 |
| Fc1cc(CN2CCOC3(CCOCC3)C2)ccc1OC(F)F | -3.49 |
| COc1cc(C(C)NCc2ncccc2C)ccc1SC(F)F (stereo not given) | 52.4 |
| CN(C)C1Cc2ccccc2N(S(=O)(=O)c2ccccc2C#N)C1 (stereo not given) | 34.1 |
| COc1cc(OC)cc(N2CCC(NCc3occc3C)C2=O)c1 (stereo not given) | 31 |

| SMILES | cytotoxicity at 70.5 h [%] |
| --- | --- |
| COc1cc(OC)cc(N2CCC(NCc3ccsc3)C2=O)c1 (stereo not given) | 33.1 |
| NC(=O)CCN(C(=O)CSc1ccc(F)cc1)c1ccc(F)cc1 | 30.2 |
| COc1ccc(N(CCC(N)=O)C(=O)CSc2ccc(Cl)cc2)cc1 | -0.942 |
| O=C(Cn1ccc(=O)[nH]c1=O)Nc1ccccc1F | -4.99 |
| O=C1CN(C(=O)c2cc(Cl)ccc2F)c2ccccc2N1 | 37.1 |
| CC(C)Oc1ccc(CNC(=O)C2CCS(=O)(=O)C2)cn1 (stereo not given) | 26.3 |
| COc1ccc(N(CCC(N)=O)C(=O)CSc2ccc(F)c(F)c2)cc1 | -12.7 |
| COc1ccc(C(=O)NCC(=O)N(Cc2ccsc2)C2CC2)cc1OC | 30.2 |
| COc1ccc(CC(=O)N2CCC(c3nnc4n3CCC4)CC2)cc1F | -5.72 |
| Cc1cc(C)c(CNC(=O)N2CCC(N3CCCC3)CC2)c(=O)[nH]1 | -7.61 |
| Cc1ccc(CC(=O)N2CCC(c3nnc4n3CCC4)CC2)cc1 | -8.21 |
| Cc1cc(C)c(CNC(=O)N2CCC(N3CCNC3=O)CC2)c(=O)[nH]1 | -10.5 |
| CC(=O)N1CCN(C(=O)NCc2ccccc2Cn2ccnc2)CC1 | -14.1 |
| O=C(c1cnc(NCCC2CCCO2)c(Cl)c1)N1CCCCC1 (stereo not given) | -10 |
| CCn1cnnc1C1CCN(C(=O)Cc2ccc(OC)c(F)c2)CC1 | -7.22 |
| O=C(NCc1ccccc1Cn1ccnc1)N1CCOCC1 | -9.82 |
| COc1ccccc1S(=O)(=O)N1CC(N(C)C)Cc2ccccc21 (stereo not given) | 30.7 |
| COc1cc(CCNC(=O)NCCC2CCCO2)ccc1C (stereo not given) | -9.73 |
| CC(Oc1ccc(OCc2ncc(C(C)C)o2)cc1)C(N)=O (stereo not given) | -8.33 |
| CCc1nsc(N2CCC3(CC2)OCCO3)n1 | -8.49 |

| SMILES | cytotoxicity at 70.5 h [%] |
| --- | --- |
| CC(N1CCN(C(=O)NCc2cccc(C#N)c2)CC1)C(F)(F)F (stereo not given) | -0.642 |
| COCc1nc(C)cc(Nc2ccc3c(c2)CC(=O)N3)n1 | -7.41 |
| CCc1cnc(CN2CCCC(c3cc(C)[nH]n3)C2)o1 (stereo not given) | -8.59 |
| O=C(NCCc1ccn(-c2ccc(F)cc2)n1)C1CCCO1 (stereo not given) | -5.68 |
| CN1CC(C(=O)NCCc2ccn(-c3ccc(F)cc3)n2)CC1=O (stereo not given) | -9.34 |
| c1cc(CCN2CCCC2CN2CCCC2)ccn1 (stereo not given) | 30 |
| CSCC1CCCN1CCc1ccncc1 (stereo not given) | 27.5 |
| Cc1ncc2c(n1)CN(CC(=O)N1CCc3sccc3C1)CC2 | -1.15 |
| CCc1ncc2c(n1)CN(CC(=O)N1CCc3sccc3C1)CC2 | -9 |
| COc1cc(C(C)NCc2scnc2C)ccc1SC(F)F (stereo not given) | -9.67 |
| O=C(CCN1CCc2cncnc2C1)N1CCc2sccc2C1 | -1.14 |
| CC(C)CC(C)N(C)Cc1nnc(-c2ccco2)o1 (stereo not given) | 31.7 |
| COCc1ccc(C(=O)N2CCCN(C(=O)OCC(C)C)CC2)cc1 | 19 |
| Cc1cc(C2CCCN(C(=O)c3ccc(OCC4CC4)nc3)C2)n[nH]1 (stereo not given) | -4.64 |
| Cc1cc(Cl)ccc1NCC(=O)Nc1cc(C(C)(C)C)no1 | -6.23 |
| CCCC(C)N(C)Cc1nnc(-c2ccco2)o1 (stereo not given) | 1.45 |
| CCOC(=O)NCCC(=O)NCc1ccc(Oc2ccc(F)cc2)nc1 | 1.62 |
| CCc1noc(C)c1C(=O)NCc1ccccn1 | -0.245 |
| c1cc(CNCc2ccc(Cn3cncn3)cc2)c2c(c1)OCCO2 | -11.4 |
| c1cc(CNCc2cccc3c2OCCCO3)cc(Cn2cncn2)c1 | -8.37 |

Reference: ChEMBL document CHEMBL3507680, “University of Dundee, Gates Library screen for HepG2 cell viability”
